Holding throughout (type): cell-based
For experiment [1], the system named is Gram-positive and Gram-negative bacteria and yeast. Put plainly: Antimicrobial activity of head-to-tail cyclic gomesin, same growth inhibition assay (FIG. 3). The following applies: tested Gram-positive and Gram-negative bacteria and yeast. As to the method: (§1) The evaluation of activity against bacteria and fungi was done as described in J. Biol. Chem., 271, 29537-29544 (1996).
On FIG. 1, n.d. means “non-detected” for the tested concentration range of up to 100 μM for gomesin, while n.m. means not measured. The minimal inhibitory concentrations (MICs) of synthetic peptides are expressed as the [A]-[B] interval of concentrations, where [A] is the highest concentration tested at which the microorganisms are growing and [B] is the lowest concentration that causes 100% growth inhibition.
The antimicrobial activity of the head-to-tail cyclic gomesin peptide (SEQ ID No 3) was evaluated using the same assay described above.

The subject of experiment [2] is bacteria, fungi and yeast. Kind of experiment: Liquid growth inhibition assay, MIC activity spectrum (FIG. 1). As to the method:
The active fraction against the tested bacterium Micrococcus luteus of hemocytes (AGH2) is additionally purified by filtration chromatography. Elution is made under isocratic conditions with 30% acetonitrile in acidic water at a flow rate of 0.4 ml/min. HPLC (high performance liquid chromatography) purification was made at room temperature. The effluent column was monitored for its absorbance at 225 nm. Fractions corresponding to absorbance peaks were collected, concentrated under vacuum and reconstituted in MilliQ water. Anti-bacterial activity of the collected fractions was monitored by a liquid growth inhibition assay according to J. Biol. Chem., 268, 14893-14897 (1993), using Micrococcus luteus as the test microorganism.
as §1
On FIG. 1, n.d. means “non-detected” for the tested concentration range of up to 100 μM for gomesin, while n.m. means not measured. The minimal inhibitory concentrations (MICs) of synthetic peptides are expressed as the [A]-[B] interval of concentrations, where [A] is the highest concentration tested at which the microorganisms are growing and [B] is the lowest concentration that causes 100% growth inhibition. […]

Experiment [3] concerns Leishmania (leishmania) amazonensis (MRPO/BR/72/M 1841-LV-79). Put plainly: Anti-parasitic activity, MTT cell viability test (FIG. 4). The following applies: incubation one hour at 22° C., 0.1 to 100 μM. The method, then:
(§2) As an example of anti-parasitic activity, the cell viability of Leishmania (leishmania) amazonensis (MRPO/BR/72/M 1841-LV-79) and Trypanosoma cruzi were evaluated, by making use of the MTT [3-(4,5-dimethyltiazolyl-2)-2,5-diphenyl tetrazolio bromide] test as described in J. Immunol. Methods 65, 55-63 (1983) and adapted for Leishmania spp, according to J. Immunol. Methods 127, 11-18 (1990).
(§3) Quantities from 0.1 to 100 μM were tested against Leishmania (leishmania) amazonensis and Trypanosoma cruzi. […] The death of parasites (%) was measured by making use of the MTT assay as described in J. Immunol. Methods 65, 55-63 (1983) and adapted for Leishmania spp, according to J. Immunol. Methods 127, 11-18 (1990).

The next experiment relates to Trypanosoma cruzi. The description is as above. The following applies: incubation one hour at 22° C., 0.1 to 100 μM. The method, then: as §2, §3

Bridges are numbered along the chain shown (N, C = ends). Bounds are passed on as bounds.

Turning to “QCRRLCYKQRCVTYCRGR (cyclo(QCRRLCYKQRCVTYCRGR); disulfide 6-11, 2-15; SMILES CC(C)C[C@@H]1NC(=O)[C@H](CCCNC(=N)N)NC(=O)[C@H](CCCNC(=N)N)NC(=O)[C@@H]2CSSC[C@H](NC(=O)[C@H](Cc3ccc(O)cc3)NC(=O)[C@H]([C@@H](C)O)NC(=O)[C@H](C(C)C)NC(=O)[C@@H]3CSSC[C@H](NC1=O)C(=O)N[C@@H](Cc1ccc(O)cc1)C(=O)N[C@@H](CCCCN)C(=O)N[C@@H](CCC(N)=O)C(=O)N[C@@H](CCCNC(=N)N)C(=O)N3)C(=O)N[C@@H](CCCNC(=N)N)C(=O)NCC(=O)N[C@@H](CCCNC(=N)N)C(=O)N[C@@H](CCC(N)=O)C(=O)N2) [head-to-tail cyclic gomesin, gomesin with closed ends]”, the “antimicrobial activity compared with native gomesin” value in experiment [1] is recorded as “identical to the activity of native gomesin”.

For the substance ZCRRLCYKQRCVTYCRGRa [gomesin], in experiment [2] (for half of the 24 susceptible strains), the “MIC (minimum inhibitory concentration)” value is at most 1.6 µM. Moreover, the “strains susceptible to gomesin” value in experiment [2] (out of the 27 strains tested, concentration range up to 100 μM) is 24 strains. Besides, the “viability of parasites (death of parasites, %)” value (in experiment [3]; in the experiment on Trypanosoma cruzi) was “dependent on the concentration of gomesin” each time.

Values taken from patent US7723468B2, “Antimicrobial peptide, compositions, and uses therefor” (De Sao Paulo Universida de, priority 2000, dated 2010).
